# Measured values: patent publication US20240398989A1, “METHODS AND COMPOSITIONS FOR DIAGNOSIS AND TREATMENT OF METABOLIC DISORDERS” (The Broad Institute, Inc., priority 2021, published 2024)
# Tested on: primary human hepatocytes (PHH)
# Test: LipocyteProfiler of drug-treated primary human hepatocytes
# Format: cell-based
# Conditions: for appearance of the cytoskeleton, Golgi and plasma membrane (AGP Texture_AngularSecondMoment): 5 mM metformin for 24h vs control, p=9.96e-08
# Description: Primary human hepatocytes (PHH) were purchased from BioIVT. Donor lot YNZ was used in this study. PHH were thawed and immediately resuspended in CP media (BioIVT) supplemented with torpedo antibiotic (BioIVT). Cell count and viability were assessed by trypan blue exclusion test prior to plating. […] Four hours after plating, media was replaced with fresh CP media. After 24 h, media was replaced with fresh CP media or CP media containing oleic acid (0.3 mM) or metformin (5 mM). Hepatocytes were incubated for an additional 24 h prior to processing. Human primary AMSCs and PHH were plated in 96-well CellCarrier plates (Perkinelmer #6005550). […] Primary human hepatocytes were stained after 48 h in culture, and 24h following treatment with oleic acid or metformin. On the respective day of the assay, cell culture media was removed and replaced by 0.5 μM Mitotracker staining solution (1 mM MitoTracker Deep Red stock (Invitrogen #M22426) diluted in culture media) to each well followed by 30 minutes incubation at 37° C.' protected from light. […] PFA was removed and cells were washed once with Hank's Balanced Salt Solution (1×), HBSS (Gibco #14025076). […] Finally, staining solution was removed and cells were washed three times with HBSS. Cells were imaged using a Opera Phenix High content screening system. […] Prior to processing, flat field illumination correction was performed using functions generated from the median intensity across each plate. Nuclei were identified using the DAPI stain and then expanded to identify whole cells using the Phalloidin/WGA and BODIPY stains. Regions of cytoplasm were then determined by removing the Nuclei from the Cell segmentations. Speckles of BODIPY staining were enhanced to assist in detection of small and large individual Lipid objects. For each object set measurements were collected representing size, shape, intensity, granularity, texture, colocalization and distance to neighbouring objects. After LipocyteProfiler (LP) feature extraction data was filtered by applying automated and manual quality control steps. […] Second, every field was assessed visually and fields that were corrupted by experimental induced technical artifacts were removed. Furthermore, blocklisted features (Way, Gregory (2019): Blocklist Features-Cell Profiler. figshare. […] After filtering data were normalised per plate using a robust scaling approach (Pedregosa et al. 2011) that subtracts the median from each variable and divides it by the interquartile range. Individual wells were aggregated for downstream analysis by cell depot and day of differentiation.
# [1] = PHH metformin treatment (5 mM, 24h), t-test
smiles,measurement,setting,value
CN(C)C(=N)N=C(N)N [metformin],Nuclei_Intensity_IntegratedIntensityEdge_AGP t-statistics,[1],−8.2E+00
same,Nuclei_Intensity_IntegratedIntensityEdge_DNA t-statistics,[1],−1.8E+01
same,Nuclei_Intensity_IntegratedIntensityEdge_Mito t-statistics,[1],5.3E+00
same,Nuclei_Intensity_IntegratedIntensity_DNA t-statistics,[1],−1.3E+01
same,Nuclei_Intensity_IntegratedIntensity_Lipid t-statistics,[1],−5.7E+00
same,Nuclei_Intensity_IntegratedIntensity_Mito t-statistics,[1],7.3E+00
same,Nuclei_Intensity_LowerQuartileIntensity_AGP t-statistics,[1],−1.4E+01
same,Nuclei_Intensity_LowerQuartileIntensity_DNA t-statistics,[1],−1.9E+01
same,Nuclei_Intensity_LowerQuartileIntensity_Lipid t-statistics,[1],−5.4E+00
same,Nuclei_Intensity_LowerQuartileIntensity_Mito t-statistics,[1],7.7E+00
same,Nuclei_Intensity_MADIntensity_AGP t-statistics,[1],−2.2E+01
same,Nuclei_Intensity_MADIntensity_DNA t-statistics,[1],4.7E+00
same,Nuclei_Intensity_MADIntensity_Mito t-statistics,[1],1.2E+01
same,Nuclei_Intensity_MassDisplacement_AGP t-statistics,[1],1.9E+01
same,Nuclei_Intensity_MassDisplacement_DNA t-statistics,[1],6.2E+01
same,Nuclei_Intensity_MassDisplacement_Lipid t-statistics,[1],2.6E+01
same,Nuclei_Intensity_MassDisplacement_Mito t-statistics,[1],1.2E+01
same,Nuclei_Intensity_MaxIntensityEdge_AGP t-statistics,[1],−8.0E+00
same,Nuclei_Intensity_MaxIntensityEdge_DNA t-statistics,[1],−1.3E+01
same,Nuclei_Intensity_MaxIntensityEdge_Mito t-statistics,[1],3.3E+00
same,Nuclei_Intensity_MaxIntensity_AGP t-statistics,[1],−1.6E+01
same,Nuclei_Intensity_MaxIntensity_Mito t-statistics,[1],3.5E+00
same,Nuclei_Intensity_MeanIntensityEdge_AGP t-statistics,[1],−8.2E+00
same,Nuclei_Intensity_MeanIntensityEdge_DNA t-statistics,[1],−1.6E+01
same,Nuclei_Intensity_MeanIntensityEdge_Mito t-statistics,[1],5.2E+00
same,Nuclei_Intensity_MeanIntensity_AGP t-statistics,[1],−1.6E+01
same,Nuclei_Intensity_MeanIntensity_DNA t-statistics,[1],−9.5E+00
same,Nuclei_Intensity_MeanIntensity_Lipid t-statistics,[1],−4.6E+00
same,Nuclei_Intensity_MeanIntensity_Mito t-statistics,[1],7.8E+00
same,Nuclei_Intensity_MedianIntensity_AGP t-statistics,[1],−1.7E+01
same,Nuclei_Intensity_MedianIntensity_DNA t-statistics,[1],−1.3E+01
same,Nuclei_Intensity_MedianIntensity_Lipid t-statistics,[1],−4.5E+00
same,Nuclei_Intensity_MedianIntensity_Mito t-statistics,[1],8.9E+00
same,Nuclei_Intensity_MinIntensityEdge_AGP t-statistics,[1],−7.5E+00
same,Nuclei_Intensity_MinIntensityEdge_DNA t-statistics,[1],−1.6E+01
same,Nuclei_Intensity_MinIntensityEdge_Lipid t-statistics,[1],−8.5E+00
same,Nuclei_Intensity_MinIntensityEdge_Mito t-statistics,[1],3.0E+00
same,Nuclei_Intensity_MinIntensity_AGP t-statistics,[1],−7.8E+00
same,Nuclei_Intensity_MinIntensity_DNA t-statistics,[1],−1.6E+01
same,Nuclei_Intensity_MinIntensity_Lipid t-statistics,[1],−8.6E+00
same,Nuclei_Intensity_MinIntensity_Mito t-statistics,[1],4.5E+00
same,Nuclei_Intensity_StdIntensityEdge_AGP t-statistics,[1],−7.5E+00
same,Nuclei_Intensity_StdIntensityEdge_DNA t-statistics,[1],−1.0E+01
same,Nuclei_Intensity_StdIntensityEdge_Lipid t-statistics,[1],6.3E+00
same,Nuclei_Intensity_StdIntensityEdge_Mito t-statistics,[1],5.2E+00
same,Nuclei_Intensity_StdIntensity_AGP t-statistics,[1],−1.8E+01
same,Nuclei_Intensity_StdIntensity_DNA t-statistics,[1],3.5E+00
same,Nuclei_Intensity_StdIntensity_Mito t-statistics,[1],6.1E+00
same,Nuclei_Intensity_UpperQuartileIntensity_AGP t-statistics,[1],−1.8E+01
same,Nuclei_Intensity_UpperQuartileIntensity_DNA t-statistics,[1],−5.7E+00
same,Nuclei_Intensity_UpperQuartileIntensity_Lipid t-statistics,[1],−4.4E+00
same,Nuclei_Intensity_UpperQuartileIntensity_Mito t-statistics,[1],8.5E+00
same,Nuclei_Location_CenterMassIntensity_Y_AGP t-statistics,[1],4.1E+00
same,Nuclei_Location_CenterMassIntensity_Y_DNA t-statistics,[1],4.2E+00
same,Nuclei_Location_CenterMassIntensity_Y_Lipid t-statistics,[1],4.1E+00
same,Nuclei_Location_CenterMassIntensity_Y_Mito t-statistics,[1],4.2E+00
same,Nuclei_Location_Center_Y t-statistics,[1],4.2E+00
same,Nuclei_Location_MaxIntensity_Y_AGP t-statistics,[1],4.1E+00
same,Nuclei_Location_MaxIntensity_Y_DNA t-statistics,[1],4.2E+00
same,Nuclei_Location_MaxIntensity_Y_Lipid t-statistics,[1],4.1E+00
same,Nuclei_Location_MaxIntensity_Y_Mito t-statistics,[1],4.5E+00
same,Nuclei_Neighbors_AngleBetweenNeighbors_2 t-statistics,[1],−2.2E+01
same,Nuclei_Neighbors_FirstClosestDistance_2 t-statistics,[1],−3.5E+00
same,Nuclei_Neighbors_FirstClosestObjectNumber_2 t-statistics,[1],−1.2E+01
same,Nuclei_Neighbors_NumberOfNeighbors_2 t-statistics,[1],1.9E+01
same,Nuclei_Neighbors_PercentTouching_2 t-statistics,[1],2.0E+01
same,Nuclei_Neighbors_SecondClosestDistance_2 t-statistics,[1],4.5E+00
same,Nuclei_Neighbors_SecondClosestObjectNumber_2 t-statistics,[1],−1.2E+01
same,Nuclei_Number_Object_Number t-statistics,[1],−1.2E+01
same,Nuclei_Radial Distribution_MeanFrac_Mito_3of4 t-statistics,[1],2.6E+01
same,Nuclei_RadialDistribution_FracAtD_AGP_3of4 t-statistics,[1],−2.7E+01
same,Nuclei_RadialDistribution_FracAtD_DNA_2of4 t-statistics,[1],3.0E+01
same,Nuclei_RadialDistribution_FracAtD_Lipid_1of4 t-statistics,[1],−1.2E+01
same,Nuclei_RadialDistribution_FracAtD_Mito_3of4 t-statistics,[1],2.4E+01
same,Nuclei_RadialDistribution_MeanFrac_AGP_3of4 t-statistics,[1],−2.7E+01
same,Nuclei_RadialDistribution_MeanFrac_DNA_2of4 t-statistics,[1],3.8E+01
same,Nuclei_RadialDistribution_MeanFrac_Lipid_2of4 t-statistics,[1],−7.9E+00
same,Nuclei_RadialDistribution_RadialCV_AGP_3of4 t-statistics,[1],2.5E+01
same,Nuclei_RadialDistribution_RadialCV_DNA_3of4 t-statistics,[1],9.7E+01
same,Nuclei_RadialDistribution_RadialCV_Lipid_3of4 t-statistics,[1],2.2E+01
same,Nuclei_RadialDistribution_RadialCV_Mito_2of4 t-statistics,[1],3.7E+01
same,Nuclei_Texture_AngularSecondMoment_AGP_10_02 t-statistics,[1],1.2E+01
same,Nuclei_Texture_AngularSecondMoment_DNA_20_03 t-statistics,[1],9.4E+00
same,Nuclei_Texture_AngularSecondMoment_Lipid_5_03 t-statistics,[1],4.2E+00
same,Nuclei_Texture_AngularSecondMoment_Mito_5_02 t-statistics,[1],−1.8E+01
same,Nuclei_Texture_Contrast_AGP_10_03 t-statistics,[1],−1.8E+01
same,Nuclei_Texture_Contrast_DNA_5_01 t-statistics,[1],5.8E+00
same,Nuclei_Texture_Contrast_Lipid_20_02 t-statistics,[1],4.3E+00
same,Nuclei_Texture_Contrast_Mito_5_03 t-statistics,[1],6.8E+00
same,Nuclei_Texture_Correlation_AGP_10_03 t-statistics,[1],3.0E+01
same,Nuclei_Texture_Correlation_DNA_10_00 t-statistics,[1],−1.6E+01
same,Nuclei_Texture_Correlation_Lipid_5_03 t-statistics,[1],2.3E+01
same,Nuclei_Texture_Correlation_Mito_5_02 t-statistics,[1],1.5E+01
same,Nuclei_Texture_DifferenceEntropy_AGP_10_00 t-statistics,[1],−2.1E+01
same,Nuclei_Texture_DifferenceEntropy_DNA_10_03 t-statistics,[1],−8.0E+00
same,Nuclei_Texture_DifferenceEntropy_Lipid_20_01 t-statistics,[1],8.2E+00
same,Nuclei_Texture_DifferenceEntropy_Mito_20_00 t-statistics,[1],8.0E+00
same,Nuclei_Texture_DifferenceVariance_AGP_10_00 t-statistics,[1],1.4E+01
same,Nuclei_Texture_DifferenceVariance_DNA_20_03 t-statistics,[1],7.3E+00
same,Nuclei_Texture_DifferenceVariance_Lipid_20_00 t-statistics,[1],5.6E+00
same,Nuclei_Texture_DifferenceVariance_Mito_10_00 t-statistics,[1],−8.1E+00
same,Nuclei_Texture_Entropy_AGP_5_00 t-statistics,[1],−1.7E+01
same,Nuclei_Texture_Entropy_DNA_10_03 t-statistics,[1],−7.7E+00
same,Nuclei_Texture_Entropy_Lipid_20_01 t-statistics,[1],7.3E+00
same,Nuclei_Texture_Entropy_Mito_5_02 t-statistics,[1],1.3E+01
same,Nuclei_Texture_InfoMeas1_AGP_10_03 t-statistics,[1],2.6E+01
same,Nuclei_Texture_InfoMeas1_Lipid_20_03 t-statistics,[1],−8.6E+00
same,Nuclei_Texture_InfoMeas2_DNA_10_03 t-statistics,[1],−1.3E+01
same,Nuclei_Texture_InfoMeas2_Mito_5_01 t-statistics,[1],1.3E+01
same,Nuclei_Texture_InverseDifferenceMoment_AGP_10_00 t-statistics,[1],2.1E+01
same,Nuclei_Texture_InverseDifferenceMoment_DNA_20_03 t-statistics,[1],1.5E+01
same,Nuclei_Texture_InverseDifferenceMoment_Lipid_20_00 t-statistics,[1],7.5E+00
same,Nuclei_Texture_InverseDifferenceMoment_Mito_10_00 t-statistics,[1],−1.4E+01
same,Nuclei_Texture_SumAverage_AGP_10_00 t-statistics,[1],−1.8E+01
same,Nuclei_Texture_SumAverage_DNA_10_01 t-statistics,[1],−1.8E+01
same,Nuclei_Texture_SumAverage_Lipid_10_00 t-statistics,[1],−6.6E+00
same,Nuclei_Texture_SumAverage_Mito_20_00 t-statistics,[1],8.5E+00
same,Nuclei_Texture_SumEntropy_AGP_5_00 t-statistics,[1],−1.9E+01
same,Nuclei_Texture_SumEntropy_DNA_10_03 t-statistics,[1],−7.8E+00
same,Nuclei_Texture_SumEntropy_Lipid_20_01 t-statistics,[1],8.0E+00
same,Nuclei_Texture_SumEntropy_Mito_5_02 t-statistics,[1],1.1E+01
same,Nuclei_Texture_SumVariance_AGP_10_03 t-statistics,[1],−1.7E+01
same,Nuclei_Texture_SumVariance_DNA_5_02 t-statistics,[1],6.2E+00
same,Nuclei_Texture_SumVariance_Lipid_20_01 t-statistics,[1],6.0E+00
same,Nuclei_Texture_SumVariance_Mito_5_02 t-statistics,[1],7.3E+00
same,Nuclei_Texture_Variance_AGP_10_03 t-statistics,[1],−1.8E+01
same,Nuclei_Texture_Variance_DNA_5_00 t-statistics,[1],5.8E+00
same,Nuclei_Texture_Variance_Lipid_20_00 t-statistics,[1],4.7E+00
same,Nuclei_Texture_Variance_Mito_5_02 t-statistics,[1],6.9E+00
same,BODIPY Texture Entropy,"PHH, 5 mM metformin for 24h, p 6.98e-04",difference
same,mitochondrial membrane potential (Mito MeanIntensity),"PHH, 5 mM metformin for 24h, p 0.0104",increased
same,cell size (AreaShape MinorAxislength),"PHH, 5 mM metformin for 24h, p=3.11e-12",smaller
same,cell size (AreaShape Area),"PHH, 5 mM metformin for 24h, p=3.87e-11",smaller
same,lipid droplet number (LargeBODIPYObjects_Count),"PHH, 5 mM metformin for 24h, p=2.37e-07",reduced
same,lipid content (BODIPY MeanIntensity),"PHH, 5 mM metformin for 24h, p=6.11e-06",reduced
same,"mitochondrial fusion (Mito Texture_angularSecondMoment, Mito Texture Entropy, Mito Texture_InfoMeas1)","PHH, 5 mM metformin for 24h, p=7.58e-05, p=6.66e-06, p=2.17e-12",increased
same,"appearance of the cytoskeleton, Golgi and plasma membrane (AGP Texture_AngularSecondMoment)",PHH,less uniform
same,"appearance of the cytoskeleton, Golgi and plasma membrane (AGP Texture_AngularSecondMoment)","PHH, listed as Metformin",reduced cytoskeletal randomness
